Here are results for 21 compounds from patent US9079919B2 (HOFFMANN-LA ROCHE INC., priority 2011, dated 2015).

The target of assay [1] is T1, BACE1 (Homo sapiens, UniProt P56817).
T1 construct: Human HEK293 cells which are stably transfected with a vector expressing a cDNA of the human APP wt gene (APP695); endogenous in cells; host or cells: HEK293 cells stably transfected with human APP695 (wt)
Description: Cellular Aβ-lowering assay a) (Aβ40 ELISA). The class given is cell-based. Conditions: cellular assay a): HEK293 cells expressing human APP695, Aβ40 in supernatant by ELISA after 18-20 hrs; read-out: BACE1 cell act. Aβ40 IC50. The protocol: a) Human HEK293 cells which are stably transfected with a vector expressing a cDNA of the human APP wt gene (APP695) were used to assess the potency of the compounds in a cellular assay. The cells were seeded in 96-well microtiter plates in cell culture medium (Iscove, plus 10% (v/v) fetal bovine serum, glutamine, penicillin/streptomycin) to about 80% confluence and the compounds were added at a 10× concentration in 1/10 volume of medium without FCS containing 8% DMSO (final concentration of DMSO was kept at 0.8% v/v). After 18-20 hrs incubation at 37° C. and 5% CO2 in a humidified incubator the culture supernatant was harvested for the determination of Aβ40 concentrations. 96 well ELISA plates (e.g., Nunc MaxiSorb) were coated with monoclonal antibody which specifically recognize the C-terminal end of Aβ40 (Brockhaus et al., NeuroReport 9, 1481-1486; 1998). After blocking of non-specific binding sites with e.g. 1% BSA and washing, the culture supernatants were added in suitable dilutions together with a horseradish peroxidase-coupled Aβ detection antibody (e.g., antibody 4G8, Senetek, Maryland Heights, Mo.) and incubated for 5 to 7 hrs. Subsequently the wells of the microtiter plate were washed extensively with Tris-buffered saline containing 0.05% Tween 20 and the assay was developed with tetramethylbenzidine/H2O2 in citric acid buffer. After stopping the reaction with one volume of 1N H2SO4 the reaction was measured in an ELISA reader at 450 nm wavelength. The concentrations of Aβ in the culture supernatants were calculated from a standard curve obtained with known amounts of pure Aβ peptide.
For orientation: ELISA stands for enzyme-linked immunosorbent assay.

Assay [2] has as its target T2, BACE2 (Rattus norvegicus, UniProt Q6IE75).
T2 construct: endogenous cellular BACE2 in the Ins1e rat cell line; endogenous in cells; host or cells: INS-TMEM27 (INS1e-derived rat cell line with doxycycline-inducible full-length human TMEM27)
T2 sequence (Q6IE75 63-514): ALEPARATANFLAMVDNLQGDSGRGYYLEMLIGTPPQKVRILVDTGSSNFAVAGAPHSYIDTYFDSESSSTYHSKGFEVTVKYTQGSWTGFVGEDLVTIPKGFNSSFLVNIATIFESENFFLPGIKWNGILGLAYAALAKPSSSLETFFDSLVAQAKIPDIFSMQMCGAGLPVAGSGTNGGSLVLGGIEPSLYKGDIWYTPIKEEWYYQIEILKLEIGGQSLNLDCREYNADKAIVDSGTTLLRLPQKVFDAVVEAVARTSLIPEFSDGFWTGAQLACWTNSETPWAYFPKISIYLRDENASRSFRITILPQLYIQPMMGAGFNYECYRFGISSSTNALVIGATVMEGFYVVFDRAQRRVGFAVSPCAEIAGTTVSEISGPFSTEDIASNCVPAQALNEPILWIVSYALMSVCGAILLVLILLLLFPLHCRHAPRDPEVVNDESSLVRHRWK
Description: Assay for BACE inhibition by measuring cellular TMEM27 cleavage. The class given is cell-based. Conditions: INS-TMEM27 cells (INS1e-derived), shed human TMEM27 by ELISA; read-out: BACE2 cell act. IC50. The source says: The assay uses the principle of inhibition of human TMEM27 cleavage by endogenous cellular BACE2 in the Ins1e rat cell line and shedding from the cell surface into the culture medium, followed by detection in an ELISA assay. Inhibition of BACE2 prevents the cleavage and shedding in a dose-dependent manner.
The stable cell line “INS-TMEM27” represents an INS1e-derived cell line with inducible expression (using the TetOn system) of full-length hTMEM27 in a doxycycline-dependent manner. The cells are cultured throughout the experiment in RPMI1640+ Glutamax (Invitrogen) Penicillin/Streptomycin, 10% Fetal bovine serum, […], […], 100 micrograms/ml G418 and 100 microgram/ml hygromycin and are grown inadherent culture at 37° C. in a standard CO2 cell culture incubator.
INS-TMEM27 cells are seeded in 96-well plates. After 2 days in culture, BACE2 inhibitor is added in a range of concentrations as required by the assay and after a further two hours, doxycycline is added to a final concentration of 500 ng/ml. The cells are incubated for a further 46 hours and the supernatant harvested for detection of shed TMEM27.
An ELISA assay (using a pair of mouse anti-human-TMEM27 antibodies, raised against the extracellular domain of TMEM27) is used for detection of TMEM27 in the culture medium. An EC50 for BACE2 inhibition is calculated using the ELISA readout for each inhibitor concentration with standard curve-fitting software such as XLFit for the Excel spreadsheet program.

T1 sequence (P56817 46-501): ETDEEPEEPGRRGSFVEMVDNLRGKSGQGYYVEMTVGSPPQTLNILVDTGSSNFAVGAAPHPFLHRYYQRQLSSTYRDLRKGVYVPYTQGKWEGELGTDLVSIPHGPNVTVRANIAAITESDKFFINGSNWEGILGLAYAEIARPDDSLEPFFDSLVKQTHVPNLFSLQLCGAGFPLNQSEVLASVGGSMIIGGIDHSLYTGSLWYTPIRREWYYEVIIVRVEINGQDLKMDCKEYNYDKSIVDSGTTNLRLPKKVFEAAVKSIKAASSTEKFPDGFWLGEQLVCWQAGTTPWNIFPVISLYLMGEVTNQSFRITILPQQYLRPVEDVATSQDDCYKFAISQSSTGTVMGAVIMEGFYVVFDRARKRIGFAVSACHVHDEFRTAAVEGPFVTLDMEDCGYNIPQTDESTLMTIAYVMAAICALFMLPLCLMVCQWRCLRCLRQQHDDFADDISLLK

Broadly, the IC50 is the midpoint of a concentration-inhibition curve. In the case of `NC1=N[C@@]2(CCCc3ccc(-c4cncc(Cl)c4)cc32)C(F)(F)CO1` [Example 1, (R)-7-(5-Chloropyridin-3-yl)-5′,5′-difluoro-3,4,5′,6′-tetrahydro-2H-spiro[naphthalene-1,4′-[1,3]oxazin]-2′-amine], the half-inhibitory concentration (IC50) in assay [1] was 100 nM; in assay [2] it was 543 nM. Consider `N#Cc1cncc(-c2ccc3c(c2)[C@@]2(CCC3)N=C(N)OCC2(F)F)c1` [Example 2, (R)-5-(2′-Amino-5′,5′-difluoro-3,4,5′,6′-tetrahydro-2H-spiro[naphthalene-1,4′-[1,3]oxazine]-7-yl)nicotinonitrile], for which the IC50 in assay [1] was 80 nM; in assay [2] it was 526 nM. In the case of `NC1=N[C@@]2(CCc3ccc(-c4cc(Cl)cc(Cl)c4)cc32)C(F)(F)CO1` [Example 8, (R)-6-(3,5-Dichlorophenyl)-5′,5′-difluoro-2,3,5′,6′-tetrahydrospiro[indene-1,4′-[1,3]oxazin]-2′-amine], the IC50 in assay [1] turned out to be 2450 nM; in assay [2], 2730 nM.

Turning to `NC1=N[C@@]2(CCc3ccc(-c4cncc(Cl)c4)cc32)C(F)(F)CO1` [Example 9, (R)-6-(5-Chloropyridin-3-yl)-5′,5′-difluoro-2,3,5′,6′-tetrahydrospiro[indene-1,4′-[1,3]oxazin]-2′-amine], the IC50 in assay [1] amounted to 790 nM; in assay [2], 3580 nM. As to `N#Cc1ccc(C(=O)Nc2ccc3c(c2)[C@@]2(CCC3)N=C(N)OCC2(F)F)nc1` [Example 13, (R)—N-(2′-Amino-5′,5′-difluoro-3,4,5′,6′-tetrahydro-2H-spiro[naphthalene-1,4′-[1,3]oxazine]-7-yl)-5-cyanopicolinamide], the IC50 in assay [1] stood at 5 nM; in assay [2], 116 nM. Taken in the same sequence, the figures for `CC1(C)CC[C@@]2(N=C(N)OCC2(F)F)c2cc(NC(=O)c3ccc(C#N)cn3)ccc21` [Example 14, (R)—N-(2′-Amino-5′,5′-difluoro-4,4-dimethyl-3,4,5′,6′-tetrahydro-2H-spiro[naphthalene-1,4′-[1,3]oxazine]-7-yl)-5-cyanopicolinamide] were 1110 nM and 13000 nM. Taken in the same sequence, the figures for `NC1=N[C@@]2(CCOc3ccc(-c4cncc(Cl)c4)cc32)C(F)(F)CO1` [Example 19, (R)-6-(5-Chloropyridin-3-yl)-5′,5′-difluoro-5′,6′-dihydrospiro[chroman-4,4′-[1,3]oxazin]-2′-amine] were 380 nM and 124 nM. `NC1=N[C@@]2(CCOc3ccc(-c4cc(Cl)cc(Cl)c4)cc32)C(F)(F)CO1` [Example 20, (R)-6-(3,5-dichlorophenyl)-5′,5′-difluoro-5′,6′-dihydrospiro[chroman-4,4′-[1,3]oxazin]-2′-amine]: the figures for the concentration for half-maximal inhibition (IC50) in assay [1] and in assay [2] were 2020 nM and 3990 nM, respectively.

In the case of `COc1cncc(-c2ccc3c(c2)[C@@]2(CCO3)N=C(N)OCC2(F)F)c1` [Example 22, (R)-5′,5′-difluoro-6-(5-methoxypyridin-3-yl)-5′,6′-dihydrospiro[chroman-4,4′-[1,3]oxazin]-2′-amine], the IC50 is 2780 nM in assay [1] and 926 nM in assay [2]. With `CC1(C)C[C@@]2(N=C(N)OCC2(F)F)c2cc(-c3cncc(Cl)c3)ccc2O1` [Example 28, (R)-6-(5-chloropyridin-3-yl)-5′,5′-difluoro-2,2-dimethyl-5′,6′-dihydrospiro[chroman-4,4′-[1,3]oxazin]-2′-amine], the IC50 in assay [1] was 2530 nM. Take `NC1=N[C@@]2(CCSc3ccc(-c4cncc(Cl)c4)cc32)C(F)(F)CO1` [Example 32, (R)-6′-(5-Chloropyridin-3-yl)-5,5-difluoro-5,6-dihydrospiro[[1,3]oxazine-4,4′-thiochroman]-2-amine]: the figures for the half-maximal inhibitory concentration (IC50) in assay [1] and in assay [2] were 676 nM and 1950 nM, respectively.

Take `NC1=N[C@@]2(CCOc3ccc(NC(=O)c4[nH]ncc4Cl)cc32)C(F)(F)CO1` [Example 35]: the concentration for half-maximal inhibition (IC50) in assay [1] was 1250 nM.

On to `CC1(C)C[C@@]2(N=C(N)OCC2(F)F)c2cc(NC(=O)c3ccc(Cl)cn3)ccc2O1` [Example 40, (R)—N-(2′-Amino-5′,5′-difluoro-2,2-dimethyl-5′,6′-dihydrospiro[chroman-4,4′-[1,3]oxazine]-6-yl)-5-chloropicolinamide], for which, in assay [1], the half-inhibitory concentration (IC50) was determined as 2260 nM. For the compound `CC1(C)C[C@@]2(N=C(N)OCC2(F)F)c2cc(NC(=O)c3ccc(C#N)cn3)ccc2O1` [Example 41, (R)—N-(2′-Amino-5′,5′-difluoro-2,2-dimethyl-5′,6′-dihydrospiro[chroman-4,4′-[1,3]oxazine]-6-yl)-5-cyanopicolinamide], in assay [1], the IC50 came out at 230 nM.

Consider `NC1=N[C@@]2(CCS(=O)(=O)c3ccc(NC(=O)c4ccc(Cl)cn4)cc32)C(F)(F)CO1` [Example 45, N-[(4R)-2-amino-5,5-difluoro-1′,1′-dioxido-2′,3′,5,6-tetrahydrospiro[1,3-oxazine-4,4′-thiochromen]-6′-yl]-5-chloropyridine-2-carboxamide], for which the IC50 in assay [1] came out at 6960 nM. On the same count and under the same terms, under `N#Cc1ccc(C(=O)Nc2ccc3c(c2)[C@@]2(CCS3(=O)=O)N=C(N)OCC2(F)F)nc1` [Example 46, N-[(4R)-2-amino-5,5-difluoro-1′,1′-dioxido-2′,3′,5,6-tetrahydrospiro[1,3-oxazine-4,4′-thiochromen]-6′-yl]-5-cyanoopyridine-2-carboxamide] stands 3400 nM; under `N#Cc1ccc(C(=O)Nc2ccc3c(c2)[C@@]2(CCC3)N=C(N)COCC2(F)F)nc1` [Example 47, (R)—N-(3′-Amino-6′,6′-difluoro-3,4,6′,7′-tetrahydro-2H,2′H-spiro[naphthalene-1,5′-[1,4]oxazepine]-7-yl)-5-cyanopicolinamide], 240 nM; under `NC1=N[C@@]2(CCCc3ccc(NC(=O)c4ccc(Cl)cn4)cc32)C(F)(F)COC1` [Example 48, (R)—N-(3′-Amino-6′,6′-difluoro-3,4,6′,7′-tetrahydro-2H,2′H-spiro[naphthalene-1,5′-[1,4]oxazepine]-7-yl)-5-chloropicolinamide], 450 nM.

Take `N#Cc1ccc(C(=O)Nc2ccc3c(c2)[C@@]2(CCO3)N=C(N)COCC2(F)F)nc1` [Example 49, (R)—N-(3′-Amino-6′,6′-difluoro-6′,7′-dihydro-2′H-spiro[chroman-4,5′-[1,4]oxazepine]-6-yl)-5-cyanopicolinamide]: in assay [1], the IC50 stood at 830 nM. Still for that read-out and setting: with `NC1=N[C@@]2(CCOc3ccc(NC(=O)c4ccc(Cl)cn4)cc32)C(F)(F)COC1` [Example 50, (R)—N-(3′-Amino-6′,6′-difluoro-6′,7′-dihydro-2′H-spiro[chroman-4,5′-[1,4]oxazepine]-6-yl)-5-chloropicolinamide] the figure was 2130 nM. For `NC1=N[C@@]2(CCOc3ccc(-c4cncc(Cl)c4)cc32)C(F)(F)COC1` [Example 54, (R)-6-(5-Chloropyridin-3-yl)-6′,6′-difluoro-6′,7′-dihydro-2′H-spiro[chroman-4,5′-[1,4]oxazepin]-3′-amine], the IC50 in assay [1] is 1160 nM.
